Literature values in paper PMC4801399, “Impact of a CXCL12/CXCR4 Antagonist in Bleomycin (BLM) Induced Pulmonary Fibrosis and Carbon Tetrachloride (CCl4) Induced Hepatic Fibrosis in Mice” (PLoS ONE, 2016).

Key:
BLM induced PF = conditions: cited from earlier work
liver fibrosis = conditions: cited from earlier work

c1cc(CN2CCCNCCNCCCNCC2)ccc1CN1CCCNCCNCCCNCC1 [AMD3100]
number of fibrocytes in the lung (BLM induced PF; 3 and 7 days post BLM treatment): decreased
mortality associated with BLM induced PF (BLM induced PF): alleviate
lung fibrosis and fibrocyte infiltration into the lung (BLM induced PF; murine model of BLM induced PF): reduce
liver fibrosis (liver fibrosis): increased
transcript levels of Acta2 and Col1a1 (liver fibrosis): increased
